Reference: patent publication US20080045489A1, “3,4-DI-SUBSTITUTED CYCLOBUTENE-1,2-DIONES AS CXC-CHEMOKINE RECEPTOR LIGANDS” (priority 2006, published 2008)

Target: T1, CXCR2 (Homo sapiens, UniProt P25025)
T1 construct: expressed in transfected cells; host or cells: Ba/F3 (Baf3) cells; membranes, clone designation [Hi70]
T1 sequence (P25025 1-360): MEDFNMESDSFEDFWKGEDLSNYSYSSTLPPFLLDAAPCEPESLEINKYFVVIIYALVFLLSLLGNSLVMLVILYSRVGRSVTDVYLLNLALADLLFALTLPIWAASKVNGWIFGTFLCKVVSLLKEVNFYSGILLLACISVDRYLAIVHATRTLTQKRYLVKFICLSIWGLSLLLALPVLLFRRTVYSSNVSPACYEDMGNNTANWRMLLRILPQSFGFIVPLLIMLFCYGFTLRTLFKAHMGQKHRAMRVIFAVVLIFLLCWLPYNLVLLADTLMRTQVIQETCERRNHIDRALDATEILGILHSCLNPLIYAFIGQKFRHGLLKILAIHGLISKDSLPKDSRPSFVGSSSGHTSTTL
Assay: [35S]GTPγS Binding Assay: inhibition of agonist (GROα) stimulated [35S]GTPγS exchange in membranes expressing CXCR2
Assay type: biochemical
Conditions: 1 h; 3 nM compound; Baf3/hCXCR2 membranes; percent inhibition at highest chemokine (hGROα) concentration 500 nM; control (no compound) = 0%, standard = 100%; read-out: % Inhibition GTPyS
Experimental: [^35S]GTPγS Binding Assay:
This assay measures the inhibition of agonist (GROα) stimulated guanosine 5′-[γ-^35S]triphospate ([^35S]GTPγS, triethylammonium salt) exchange in membranes expressing CXCR2.
For each assay point, 2 μg of membrane (Baf3/hCXCR22 [Hi70]), 200 μg wheat germ agglutinin-coated SPA beads (WGA-SPA; Amersham, Arlington Heights, Ill.), 3 μM guanosine 5′-diphosphate (GDP) ±3 nM compound are pre-incubated for 3 hrs at room temperature (mixing by inversion) in SPA binding buffer (50 mM TRIS-HCL, 1 mM CaCl2, 5 mM MgCl2, 50 mM NaCl, 0.002% NaN3, 0.1% BSA, 10 μg/ml saponin, pH=7.6).
The bead, membrane, compound mixture is transferred to a 96-well Isoplate (Wallac, Gaithersburg, Md.) and pre-incubated for 60 min with concentrations of chemokine (hGROα) ranging from 500 nM to 1 nM with a no chemokine sample serving as a control. The GTPγS exchange reaction was initiated by the addition of 0.1 nM [^35S]GTPγS and the incubation for 60 min at room temperature. Assay is terminated by the addition of 10 μl “Stop Solution” (0.5M Na-EDTA; 10 μM GDP).
Membrane-bound [^35S]GTPγS was measured using a 1450 Microbeta Trilux counter (Wallac, Gaithersburg, Md.). Data is calculated as percent inhibition at the highest chemokine concentration (500 nM). The control (No compound addition), which is set to 0%, versus the % inhibition of the standard, which is set at 100%. The standard used is: [drawing 19]

Row | Structure (SMILES) | inhibition at 0.003 µM [%]
1 | CC[C@@H](Nc1c(Nc2cccc(C(=O)N3CCOCC3)c2O)c(=O)c1=O)c1cc(C(C)C)c(C)o1 [Compound 1, 4-[2-HYDROXY-3-[[2-[[1(R)-[5-METHYL- 4-(1-METHYLETHYL)-2-FURANYL]- PROPYL]AMINO]-3,4-DIOXO-1- CYCLOBUTEN-1-YL]AMINO]BENZOYL]- MORPHOLINE] | 137
2 | CC[C@@H](Nc1c(Nc2cccc(C(=O)N3CCCC3)c2O)c(=O)c1=O)c1cc(C(C)C)c(C)o1 [Compound 2, 1-[2-HYDROXY-3-[[2-[[1(R)-[5-METHYL- 4-(1-METHYLETHYL)-2-FURANLY]- PROPYL]AMINO]-3,4-DIOXO-1- CYCLOBUTEN-1-YL]AMINO]-BENZOYL]PYRROLIDINE] | 132
3 | CC[C@@H](Nc1c(Nc2cccc(C(=O)N(C)C)c2O)c(=O)c1=O)c1cc(Br)c(C)o1 [Compound 3, 3-[[2-[[1(R)-(4-BROMO-5-METHYL-2- FURANYL)PROPYL]AMINO]-3,4-DIOXO- 1-CYCLOBUTEN-1-YL]AMINO]-2- HYDROXY-N,N-DIMETHYLBENZAMIDE] | 122
4 | CC[C@@H](Nc1c(Nc2cccc(C(=O)N(C)C)c2O)c(=O)c1=O)c1cc(Cl)c(C)o1 [Compound 4, 3-[[2-[[1(R)-(4-CHLORO-5-METHYL-2- FURANYL)PROPYL]AMINO]-3,4-DIOXO- 1-CYCLOBUTEN-1-YL]AMINO]-2- HYDROXY-N,N-DIMETHYLBENZAMIDE] | 120
5 | CC[C@@H](Nc1c(Nc2cccc(C(=O)N3CC[C@H](O)C3)c2O)c(=O)c1=O)c1cc(Br)c(C)o1 [Compound 5, 1-[3-[[2-[[1(R)-(4-BROMO-5-METHYL-2- FURANYL)PROPYL]AMINO]-3,4-DIOXO- 1-CYCLOBUTEN-1-YL]AMINO]-2- HYDROXYBENZOYL]-3(S)- PYRROLIDINOL] | 119
6 | CC[C@@H](Nc1c(Nc2cccc(C(=O)N3CCC3)c2O)c(=O)c1=O)c1cc(C2CC2)c(C)o1 [Compound 6, 1-[3-[[2-[[1(R)-(4-CYCLOPROPYL-5- METHYL-2-FURANYL)PROPYL]AMINO]- 3,4-DIOXO-1-CYCLOBUTEN-1- YL]AMINO]-2-HYDROXYBENZOYL]- AZETIDINE] | 115
7 | CC[C@@H](Nc1c(Nc2cccc(C(=O)N3CCOCC3)c2O)c(=O)c1=O)c1cc(Br)c(C)o1 [Compound 7, 4-[3-[[2-[[1(R)-(4-BROMO-5-METHYL-2- FURANYL)PROPYL]AMINO]-3,4-DIOXO- 1-CYCLOBUTEN-1-YL]AMINO]-2- HYDROXYBENZOYL]MORPHOLINE] | 114
8 | CC[C@@H](Nc1c(Nc2cccc(C(=O)N(C)C)c2O)c(=O)c1=O)c1cc(C(C)C)c(C)o1 [Compound 8, 2-HYDROXY-N,N-DIMETHYL-3-[[2- [[1(R)-[5-METHYL-4-(1-METHYLETHYL)- 2-FURANYL]PROPYL]AMINO]-3,4- DIOXO-1-CYCLOBUTEN-1-YL]AMINO]- BENZAMIDE] | 112
9 | CC[C@@H](Nc1c(Nc2cccc(C(=O)N3CCCC3)c2O)c(=O)c1=O)c1cc(Br)c(C)o1 [Compound 9, 1-[3-[[2-[[1(R)-(4-BROMO-5-METHYL-2- FURANYL)PROPYL]AMINO]-3,4-DIOXO- 1-CYCLOBUTEN-1-YL]AMINO]-2- HYDROXYBENZOYL]PYRROLIDINE] | 110
10 | CC[C@@H](Nc1c(Nc2cccc(C(=O)N(C)C)c2O)c(=O)c1=O)c1cc(C(C)C)c(Br)o1 [Compound 10, 3-[[2-[[1(R)-[5-BROMO-4-(1-METHYL- ETHYL)-2-FURANYL]PROPYL]AMINO]- 3,4,-DIOXO-1-CYCLOBUTEN-1-YL]- AMINO]-2-HYDROXY-N,N-DIMETHYL- BENZAMIDE] | 109
11 | CC[C@@H](Nc1c(Nc2cccc(C(=O)N(C)C)c2O)c(=O)c1=O)c1cc(C2CCCC2)c(C)o1 [Compound 11, 3-[[2-[[1(R)-(4-CYCLOPENTYL-5- METHYL-2-FURANYL)PROPYL]AMINO]- 3,4-DIOXO-1-CYCLOBUTEN-1-YL]- AMINO]-2-HYDROXY-N,N-DIMETHYL- BENZAMIDE] | 109
12 | CC[C@@H](Nc1c(Nc2cccc(C(=O)N(C)C)c2O)c(=O)c1=O)c1cc(C2CC2)c(C)o1 [Compound 12, 3-[[2-[[1(R)-(4-CYCLOPROPYL-5- METHYL-2-FURANYL)PROPYL]AMINO]- 3,4-DIOXO-1-CYCLOBUTEN-1-YL]- AMINO]-2-HYDROXY-N,N-DIMETHYL- BENZAMIDE] | 107
13 | CC[C@@H](Nc1c(Nc2cccc(C(=O)N(C)C)c2O)c(=O)c1=O)c1cc(C(C)C)c(C2CC2)o1 [Compound 13, 3-[[2-[[1(R)-[5-CYCLOPROPYL-4-(1- METHYLETHYL)-2-FURANYL]PROPYL]- AMINO]-3,4-DIOXO-1-CYCLOBUTEN-1- YL]AMINO]-2-HYDROXY-N,N- DIMETHYLBENZAMIDE] | 105
14 | CC[C@@H](Nc1c(Nc2cccc(C(=O)N3CCOCC3)c2O)c(=O)c1=O)c1cc(C2CC2)c(C)o1 [Compound 14, 4-[3-[[2-[[1(R)-(4-CYCLOPROPYL-5- METHYL-2-FURANYL)PROPYL]AMINO]- 3,4-DIOXO-1-CYCLOBUTEN-1-YL]- AMINO]-2-HYDROXYBENZOYL]- MORPHOLINE] | 103
15 | CCc1oc([C@@H](CC)Nc2c(Nc3cccc(C(=O)N4CCC4)c3O)c(=O)c2=O)cc1Br [Compound 15, 1-[3-[[2-[[1(R)-(4-BROMO-5-ETHYL-2- FURANYL)PROPYL]AMINO]-3,4-DIOXO- 1-CYCLOBUTEN-1-YL]AMINO]-2- HYDROXYBENZOYL]AZETIDINE] | 103
16 | CC[C@@H](Nc1c(Nc2cccc(C(=O)N3CC[C@@H](O)C3)c2O)c(=O)c1=O)c1cc(Br)c(C)o1 [Compound 16, 1-[3-[[2-[[1(R)-(4-BROMO-5-METHYL-2- FURANYL)PROPYL]AMINO]-3,4-DIOXO- 1-CYCLOBUTEN-1-YL]AMINO]-2- HYDROXYBENZOYL]-3(R)- PYRROLIDINOL] | 101
17 | CC[C@@H](Nc1c(Nc2cccc(C(=O)N3CCC3)c2O)c(=O)c1=O)c1cc(C(C)C)c(C)o1 [Compound 17, 1-[2-HYDROXY-3-[[2-[[1(R)-[5-METHYL- 4-(1-METHYLETHYL)-2-FURANYL]- PROPYL]AMINO]-3,4-DIOXO-1- CYCLOBUTEN-1-YL]AMINO]- BENZOYL]AZETIDINE] | 100
18 | CCc1oc([C@@H](CC)Nc2c(Nc3cccc(C(=O)N(C)C)c3O)c(=O)c2=O)cc1Br [Compound 18, 3-[[2-[[1(R)-(4-BROMO-5-ETHYL-2- FURANYL)PROPYL]AMINO]-3,4-DIOXO- 1-CYCLOBUTEN-1-YL]AMINO]-2- HYDROXY-N,N-DIMETHYLBENZAMIDE] | 99
